Columns and labels:
lipoamide = compound: NC(=O)CCCCC1CCSS1 [lipoamide]; assay: thermal stability z-score vs DMSO; higher = more thermally stabilized by treatment; conditions: HeLa, lipoamide concentration 100 µM
Procedure: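 Cellular thermal proteome profiling in HeLa cells. Cells were treated with 100 µM lipoamide for 1 h, with or without 1 mM arsenate for a further 1 h, then heated to ten temperatures (37-66.3 °C), and soluble protein was quantified by TMT mass spectrometry relative to 0.1% DMSO controls. The thermal stability score (sum of log2 fold changes minus the abundance score) was transformed to a z-score; mean of n = 3 experiments.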

potassium arsenate = compound: O=[As]([O-])(O)O.[K+] [potassium arsenate]; assay: as above; conditions: HeLa; arsenate concentration 1 mM
Procedure: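 Cellular thermal proteome profiling in HeLa cells treated with 1 mM arsenate for 1 h (DMSO pretreatment), heated to ten temperatures (37-66.3 °C). Soluble protein was quantified by TMT mass spectrometry relative to DMSO controls; the thermal stability score was transformed to a z-score; mean of n = 3 experiments.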

[1] = arsenate co-treatment: 1 mM arsenate 1 h
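Also: each temperature applied for 3 min, abundance score taken as mean log2 fold change at the two lowest temperatures, z-score obtained by mean subtraction and division by SD.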

Chain of UniProt O14920 (O14920 whole entry): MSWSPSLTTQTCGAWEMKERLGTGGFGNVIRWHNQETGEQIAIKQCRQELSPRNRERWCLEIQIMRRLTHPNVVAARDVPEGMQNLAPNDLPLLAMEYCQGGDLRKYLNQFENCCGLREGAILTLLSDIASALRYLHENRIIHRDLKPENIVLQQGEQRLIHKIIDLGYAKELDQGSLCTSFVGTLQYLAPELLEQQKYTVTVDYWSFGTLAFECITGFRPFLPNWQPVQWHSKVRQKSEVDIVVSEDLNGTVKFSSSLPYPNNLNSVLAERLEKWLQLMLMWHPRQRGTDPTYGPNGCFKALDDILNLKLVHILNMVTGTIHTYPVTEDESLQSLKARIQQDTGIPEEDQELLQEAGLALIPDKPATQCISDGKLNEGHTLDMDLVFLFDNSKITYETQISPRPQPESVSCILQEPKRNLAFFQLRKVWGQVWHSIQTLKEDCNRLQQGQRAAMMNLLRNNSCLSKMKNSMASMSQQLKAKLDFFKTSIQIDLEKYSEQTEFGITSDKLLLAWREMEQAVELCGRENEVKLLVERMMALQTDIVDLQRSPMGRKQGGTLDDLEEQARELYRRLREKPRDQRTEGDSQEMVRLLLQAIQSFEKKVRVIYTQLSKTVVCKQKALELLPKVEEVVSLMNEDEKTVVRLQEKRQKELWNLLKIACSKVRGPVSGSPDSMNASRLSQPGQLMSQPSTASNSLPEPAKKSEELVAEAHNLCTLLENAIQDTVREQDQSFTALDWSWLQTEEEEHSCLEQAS
Chain of UniProt A1L0T0 (A1L0T0 whole entry): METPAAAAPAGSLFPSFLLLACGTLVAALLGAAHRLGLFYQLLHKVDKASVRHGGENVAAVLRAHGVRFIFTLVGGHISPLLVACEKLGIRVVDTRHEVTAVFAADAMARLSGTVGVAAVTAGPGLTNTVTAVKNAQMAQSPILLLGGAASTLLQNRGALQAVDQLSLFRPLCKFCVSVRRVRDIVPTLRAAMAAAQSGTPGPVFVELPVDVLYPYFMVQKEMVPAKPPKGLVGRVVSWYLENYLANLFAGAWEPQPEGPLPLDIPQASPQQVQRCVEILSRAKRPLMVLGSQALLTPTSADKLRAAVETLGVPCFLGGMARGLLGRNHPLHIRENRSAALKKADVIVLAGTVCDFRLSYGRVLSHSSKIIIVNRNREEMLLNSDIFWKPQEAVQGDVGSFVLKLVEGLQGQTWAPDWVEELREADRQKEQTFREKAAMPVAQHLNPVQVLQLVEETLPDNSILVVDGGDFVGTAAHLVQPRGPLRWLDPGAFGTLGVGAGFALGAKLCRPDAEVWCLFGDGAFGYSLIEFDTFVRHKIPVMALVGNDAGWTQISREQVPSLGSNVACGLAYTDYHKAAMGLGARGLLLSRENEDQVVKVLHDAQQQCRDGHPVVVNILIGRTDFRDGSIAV
Chain of UniProt Q8IU81 (Q8IU81 whole entry): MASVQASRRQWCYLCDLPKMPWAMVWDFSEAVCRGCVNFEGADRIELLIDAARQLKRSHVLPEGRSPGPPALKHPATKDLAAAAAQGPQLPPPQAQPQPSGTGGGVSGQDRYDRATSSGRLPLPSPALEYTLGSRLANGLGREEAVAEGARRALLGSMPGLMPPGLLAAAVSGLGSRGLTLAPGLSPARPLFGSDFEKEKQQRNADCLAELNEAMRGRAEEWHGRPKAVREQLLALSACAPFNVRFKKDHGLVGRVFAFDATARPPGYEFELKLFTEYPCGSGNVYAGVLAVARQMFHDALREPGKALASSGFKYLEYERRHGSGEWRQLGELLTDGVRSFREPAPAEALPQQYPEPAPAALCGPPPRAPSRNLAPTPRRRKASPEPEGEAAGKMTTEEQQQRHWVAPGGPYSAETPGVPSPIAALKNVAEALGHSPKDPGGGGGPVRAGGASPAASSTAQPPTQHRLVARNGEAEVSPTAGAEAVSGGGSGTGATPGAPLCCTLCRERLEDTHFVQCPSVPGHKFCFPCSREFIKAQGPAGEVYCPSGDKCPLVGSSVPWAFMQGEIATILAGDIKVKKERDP
Chain of UniProt P48200 (P48200 whole entry): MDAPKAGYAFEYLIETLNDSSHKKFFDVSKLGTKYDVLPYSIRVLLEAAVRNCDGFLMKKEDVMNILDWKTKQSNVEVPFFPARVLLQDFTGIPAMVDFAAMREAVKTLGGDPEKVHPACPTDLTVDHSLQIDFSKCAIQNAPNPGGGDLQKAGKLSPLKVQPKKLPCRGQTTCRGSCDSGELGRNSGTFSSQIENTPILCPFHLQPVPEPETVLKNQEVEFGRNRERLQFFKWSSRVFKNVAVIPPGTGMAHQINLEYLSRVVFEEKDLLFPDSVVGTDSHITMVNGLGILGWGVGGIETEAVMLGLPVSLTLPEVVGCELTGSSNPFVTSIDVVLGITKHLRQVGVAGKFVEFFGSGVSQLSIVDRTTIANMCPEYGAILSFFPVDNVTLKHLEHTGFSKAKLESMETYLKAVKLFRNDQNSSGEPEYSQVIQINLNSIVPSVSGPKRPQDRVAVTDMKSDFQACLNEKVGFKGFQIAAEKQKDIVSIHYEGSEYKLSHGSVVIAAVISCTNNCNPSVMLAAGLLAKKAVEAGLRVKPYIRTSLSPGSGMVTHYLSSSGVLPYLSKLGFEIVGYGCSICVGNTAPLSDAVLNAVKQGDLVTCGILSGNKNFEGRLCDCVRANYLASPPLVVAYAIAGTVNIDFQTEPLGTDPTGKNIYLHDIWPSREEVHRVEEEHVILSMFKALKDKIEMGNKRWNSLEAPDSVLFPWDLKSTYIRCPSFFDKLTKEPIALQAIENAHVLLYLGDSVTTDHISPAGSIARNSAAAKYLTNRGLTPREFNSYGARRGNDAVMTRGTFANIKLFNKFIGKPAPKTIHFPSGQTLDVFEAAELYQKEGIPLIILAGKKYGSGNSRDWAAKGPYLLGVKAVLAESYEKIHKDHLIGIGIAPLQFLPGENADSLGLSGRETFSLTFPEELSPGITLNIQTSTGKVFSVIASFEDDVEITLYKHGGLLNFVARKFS
Chain of UniProt O14732 (O14732 whole entry): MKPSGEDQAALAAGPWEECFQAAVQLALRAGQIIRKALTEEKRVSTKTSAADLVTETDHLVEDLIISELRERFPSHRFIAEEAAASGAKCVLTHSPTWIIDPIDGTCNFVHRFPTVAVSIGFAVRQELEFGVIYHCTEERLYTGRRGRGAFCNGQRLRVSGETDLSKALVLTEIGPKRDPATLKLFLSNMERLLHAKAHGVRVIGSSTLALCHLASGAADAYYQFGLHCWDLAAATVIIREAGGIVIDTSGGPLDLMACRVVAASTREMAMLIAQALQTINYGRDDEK
Chain of UniProt Q96HW7 (Q96HW7 whole entry): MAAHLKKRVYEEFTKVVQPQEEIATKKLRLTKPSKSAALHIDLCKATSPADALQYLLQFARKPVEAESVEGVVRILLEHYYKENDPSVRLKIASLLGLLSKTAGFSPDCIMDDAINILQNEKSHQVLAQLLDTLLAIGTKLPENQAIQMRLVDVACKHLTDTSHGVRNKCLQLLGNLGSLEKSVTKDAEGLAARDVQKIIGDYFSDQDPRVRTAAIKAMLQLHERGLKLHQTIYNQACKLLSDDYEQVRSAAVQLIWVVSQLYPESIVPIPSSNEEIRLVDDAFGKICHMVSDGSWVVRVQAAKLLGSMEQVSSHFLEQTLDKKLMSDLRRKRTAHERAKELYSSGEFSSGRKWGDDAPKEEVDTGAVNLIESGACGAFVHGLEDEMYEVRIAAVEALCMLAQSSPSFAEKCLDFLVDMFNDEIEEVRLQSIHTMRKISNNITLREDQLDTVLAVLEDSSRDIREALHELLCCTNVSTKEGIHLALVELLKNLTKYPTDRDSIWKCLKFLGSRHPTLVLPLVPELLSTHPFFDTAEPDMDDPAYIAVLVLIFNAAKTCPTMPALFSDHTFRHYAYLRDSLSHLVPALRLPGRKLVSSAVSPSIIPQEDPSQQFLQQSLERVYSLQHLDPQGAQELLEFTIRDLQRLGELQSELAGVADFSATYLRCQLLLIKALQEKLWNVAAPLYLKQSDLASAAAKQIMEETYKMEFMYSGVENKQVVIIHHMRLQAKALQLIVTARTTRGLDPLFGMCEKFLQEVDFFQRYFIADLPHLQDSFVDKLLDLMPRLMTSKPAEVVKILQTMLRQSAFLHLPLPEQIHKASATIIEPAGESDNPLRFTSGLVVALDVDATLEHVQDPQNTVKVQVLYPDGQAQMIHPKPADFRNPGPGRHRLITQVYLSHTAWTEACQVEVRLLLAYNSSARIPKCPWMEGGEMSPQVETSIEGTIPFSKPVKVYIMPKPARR
Chain of UniProt Q6UWB1 (Q6UWB1 whole entry): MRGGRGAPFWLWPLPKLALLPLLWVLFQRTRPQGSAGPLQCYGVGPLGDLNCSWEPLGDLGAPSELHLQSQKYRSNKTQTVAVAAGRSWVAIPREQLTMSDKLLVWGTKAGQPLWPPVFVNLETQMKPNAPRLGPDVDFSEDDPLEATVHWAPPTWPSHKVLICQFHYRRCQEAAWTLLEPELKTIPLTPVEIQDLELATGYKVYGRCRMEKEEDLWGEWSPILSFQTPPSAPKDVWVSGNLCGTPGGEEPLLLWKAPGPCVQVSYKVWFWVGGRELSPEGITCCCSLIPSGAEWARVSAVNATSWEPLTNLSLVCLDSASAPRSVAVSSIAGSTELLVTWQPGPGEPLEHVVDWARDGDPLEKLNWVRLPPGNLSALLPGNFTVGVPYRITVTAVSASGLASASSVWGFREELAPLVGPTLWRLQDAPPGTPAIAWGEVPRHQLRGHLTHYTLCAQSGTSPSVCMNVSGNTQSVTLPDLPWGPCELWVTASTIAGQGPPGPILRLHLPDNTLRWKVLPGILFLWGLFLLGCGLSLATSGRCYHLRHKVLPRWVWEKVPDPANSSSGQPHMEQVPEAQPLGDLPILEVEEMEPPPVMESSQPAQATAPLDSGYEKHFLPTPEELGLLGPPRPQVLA
Chain of UniProt Q9GZP8 (Q9GZP8 whole entry): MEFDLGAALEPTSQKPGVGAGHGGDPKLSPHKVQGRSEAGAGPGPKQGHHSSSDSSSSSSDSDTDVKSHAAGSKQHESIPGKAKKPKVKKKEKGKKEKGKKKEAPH

| Target | thermal stability z-score (lipoamide; [1]) | thermal stability z-score (lipoamide; arsenate co-treatment: none) | thermal stability z-score (potassium arsenate) |
| --- | --- | --- | --- |
| IK (UniProt Q13123) | 1.25 | 0.908 | 1.75 |
| IKBIP (UniProt Q70UQ0) | -3.01 | -2.3 | -0.0459 |
| IKBKAP (UniProt O95163) | -0.193 | -0.141 | -0.261 |
| IKBKB (UniProt O14920) | -0.0799 | -0.108 | -0.426 |
| IKBKG (UniProt Q9Y6K9) | -0.275 | -0.162 | -0.992 |
| IL1RAP (UniProt Q9NPH3) | -0.15 | -0.0435 | -0.164 |
| IL6ST (UniProt P40189) | -1.74 | -1 | -1.84 |
| IL18 (UniProt Q14116) | 0.282 | -0.0498 | -0.226 |
| IL27RA (UniProt Q6UWB1) | -0.395 | 0.44 | 1.33 |
| ILF2 (UniProt Q12905) | 0.0392 | 0.153 | -1.96 |
| ILF3 (UniProt Q12906) | 1.39 | 0.801 | -1.11 |
| ILK (UniProt Q13418) | 0.201 | -0.00153 | 0.129 |
| ILKAP (UniProt Q9H0C8) | 0.624 | 0.292 | -0.406 |
| ILVBL (UniProt A1L0T0) | 1.34 | 0.509 | 0.772 |
| IMMT (UniProt Q16891) | 0.667 | 0.854 | 1.31 |
| IMP3 (UniProt Q9NV31) | -0.323 | -0.228 | 0.389 |
| IMPA1 (UniProt P29218) | 0.595 | 0.776 | 0.0144 |
| IMPA2 (UniProt O14732) | 0.737 | 0.182 | -0.728 |
| IMPACT (UniProt Q9P2X3) | 0.0967 | -0.0125 | 0.103 |
| IMPAD1 (UniProt Q9NX62) | -0.426 | -0.356 | -0.352 |
| IMPDH1 (UniProt P20839) | -0.546 | -0.319 | 1.28 |
| IMPDH2 (UniProt P12268) | -0.759 | -0.205 | 1.25 |
| IMUP (UniProt Q9GZP8) | -0.123 | -0.141 | 0.162 |
| INADL (UniProt Q8NI35) | -0.13 | -0.0923 | -0.0383 |
| INF2 (UniProt Q27J81) | -0.674 | -0.257 | 0.0741 |
| ING1 (UniProt Q9UK53) | 1.11 | 0.466 | -1.34 |
| INPP1 (UniProt P49441) | -1.52 | -1.35 | -1.9 |
| INPP4A (UniProt Q96PE3) | 0.395 | 0.319 | 0.221 |

| Target | thermal stability z-score (lipoamide; [1]) | thermal stability z-score (lipoamide; arsenate co-treatment: none) | thermal stability z-score (potassium arsenate) |
| --- | --- | --- | --- |
| INPP5A (UniProt Q14642) | -1.28 | -0.144 | 0.656 |
| INPP5B (UniProt P32019) | -0.146 | -0.514 | -0.211 |
| INPP5F (UniProt Q9Y2H2) | -0.128 | -0.261 | 0.13 |
| INPP5J (UniProt Q15735) | -0.307 | -0.456 | -0.471 |
| INPP5K (UniProt Q9BT40) | -0.0181 | 0.225 | 0.268 |
| INPPL1 (UniProt O15357) | -0.527 | -0.154 | 0.0386 |
| INSR (UniProt P06213) | 0.408 | 0.683 | 0.639 |
| INTS3 (UniProt Q68E01) | -0.121 | -0.0169 | 0.26 |
| INTS4 (UniProt Q96HW7) | 1.08 | 1.34 | -0.0059 |
| INTS7 (UniProt Q9NVH2) | 0.874 | -0.103 | -0.0595 |
| IP6K1 (UniProt Q92551) | 0.327 | -0.471 | -0.179 |
| IPO4 (UniProt Q8TEX9) | -0.55 | -0.394 | 0.0408 |
| IPO5 (UniProt O00410) | 0.21 | -0.103 | -0.498 |
| IPO7 (UniProt O95373) | 2.63 | 0.4 | -0.418 |
| IPO8 (UniProt O15397) | -0.327 | -0.557 | 0.756 |
| IPO9 (UniProt Q96P70) | 0.178 | -0.179 | 0.165 |
| IPO11 (UniProt Q9UI26) | -0.322 | -0.104 | -0.0713 |
| IPO13 (UniProt O94829) | -0.112 | -0.218 | -0.159 |
| IPPK (UniProt Q9H8X2) | 0.199 | 0.487 | 0.0883 |
| IQGAP1 (UniProt P46940) | 0.776 | 0.818 | -1.08 |
| IQGAP2 (UniProt Q13576) | -0.121 | -0.159 | -0.209 |
| IQGAP3 (UniProt Q86VI3) | -0.157 | -0.0447 | -0.171 |
| IQSEC1 (UniProt Q6DN90) | 0.165 | 0.212 | 0.159 |
| IRAK1 (UniProt P51617) | -0.153 | -0.074 | -0.328 |
| IRAK4 (UniProt Q9NWZ3) | -0.11 | -0.0699 | -0.11 |
| IREB2 (UniProt P48200) | -0.0142 | 0.0771 | -0.386 |
| IRF2BP1 (UniProt Q8IU81) | -0.196 | -0.13 | -0.228 |

Source: the supplement of paper PMC12463676, “Small-molecule dissolution of stress granules by redox modulation benefits ALS models” (Nature Chemical Biology, 2025)
